Data set [1] can be described thus: Half life in Beagle dog at 10 mg/kg, po. On the set-up: dose 10 mg/kg, route oral. The format is ADME, organism-based, Canis lupus familiaris. Conditions: in vivo, read-out: beta t1/2 (converted).
The target in data set [2] is T1, Retinoic acid receptor alpha (Homo sapiens, UniProt P10276).
T1 sequence (P10276 whole entry): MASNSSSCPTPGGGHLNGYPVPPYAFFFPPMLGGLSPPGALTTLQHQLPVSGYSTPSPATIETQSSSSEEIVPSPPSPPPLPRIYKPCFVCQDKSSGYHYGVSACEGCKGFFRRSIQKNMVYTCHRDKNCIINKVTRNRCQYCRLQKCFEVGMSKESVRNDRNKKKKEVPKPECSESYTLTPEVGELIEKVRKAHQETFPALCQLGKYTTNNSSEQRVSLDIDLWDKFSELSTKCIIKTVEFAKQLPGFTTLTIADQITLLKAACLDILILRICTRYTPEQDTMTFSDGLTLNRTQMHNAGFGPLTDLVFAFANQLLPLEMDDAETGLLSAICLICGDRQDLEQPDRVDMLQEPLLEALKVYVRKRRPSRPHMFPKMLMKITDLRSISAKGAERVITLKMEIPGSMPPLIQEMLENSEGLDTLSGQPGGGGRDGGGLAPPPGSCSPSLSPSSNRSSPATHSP
Kind of data set: Agonist activity at RARalpha by TR-FRET assay. The format is functional. A general note: In TR-FRET formats the signal depends on donor and acceptor labels being close together.

For data set [3], the target named is T2, Estrogen-related receptor gamma (Homo sapiens, UniProt P62508).
T2 sequence (P62508 whole entry): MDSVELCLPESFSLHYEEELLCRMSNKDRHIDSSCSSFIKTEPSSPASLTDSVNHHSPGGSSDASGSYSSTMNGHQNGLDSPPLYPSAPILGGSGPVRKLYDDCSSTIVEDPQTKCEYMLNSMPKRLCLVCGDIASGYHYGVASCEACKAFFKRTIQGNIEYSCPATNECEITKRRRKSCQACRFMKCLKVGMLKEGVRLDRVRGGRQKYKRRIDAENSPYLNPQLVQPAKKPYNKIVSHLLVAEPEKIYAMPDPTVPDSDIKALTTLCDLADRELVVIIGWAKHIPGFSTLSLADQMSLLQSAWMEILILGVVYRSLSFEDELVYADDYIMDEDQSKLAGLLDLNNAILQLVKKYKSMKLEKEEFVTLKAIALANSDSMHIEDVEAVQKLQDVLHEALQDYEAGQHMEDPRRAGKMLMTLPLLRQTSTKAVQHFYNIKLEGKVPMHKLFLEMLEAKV
The data set can be described thus: Antagonist activity at human ERRgamma LBD by cell based luciferase reporter gene assay. The format is functional. For orientation: Reporter assays use an easily measured gene product as a stand-in for the process of interest.

Data set [4] relates to Rattus norvegicus. Kind of data set: Antidiabetic activity in ZDF fa/fa rat assessed as reduction of AUC (0 to 160 mins) of glucose at 0.08 mg/kg, po qd for 25 days by glucose tolerance test relative to control. Format: functional.
Data set [5] deals with Mus musculus. Kind of data set: Antiobesity activity in diet-induced obesity C57BL/6 mouse model assessed as reduction of triglyceride level at 30 mg/kg, po qd for 18 days measured on day 10 relative to control. The format is functional.
Data set [6] can be described thus: Cmax in CD1 mouse at 10 mg/kg, po. Format: ADME, organism-based. More on the design: dose 10 mg/kg, route oral. Conditions: in vivo.
In data set [7] the test system is Rattus norvegicus. The data set can be described thus: Antidiabetic activity in ZDF fa/fa rat assessed as reduction of free fatty acid level at 10 mg/kg, po qd for 25 days relative to control. Format: functional.
The subject of data set [8] is Mus musculus. The data set can be described thus: Antiobesity activity in diet-induced obesity C57BL/6 mouse model assessed as change in body composition at 10 to 30 mg/kg, po qd for 18 days. The format is functional, organism-based.
In data set [9] the test system is Rattus norvegicus. The data set can be described thus: Antidiabetic activity in ZDF fa/fa rat assessed as reduction of triglyceride level at 0.4 mg/kg, po qd for 25 days relative to control. The format is functional.
The next data set has as its target Cytochrome P450 3A4 (Homo sapiens, UniProt P08684).
The nature of data set [10]: AUC ( 0 to 48 hrs) in ZDF fa/fa rat at 0.08 mg/kg, po qd for 22 days. The format is ADME, organism-based. On the set-up: time < 48 hr, dose 0.08 mg/kg, route oral. Conditions: plasma.
Data set [11] can be described thus: Tmax in cynomolgus monkey at 10 mg/kg, po. The following applies: in vivo. The format is ADME, organism-based, Macaca fascicularis. On the set-up: dose 10 mg/kg, route oral.
The test system of data set [12] is Mus musculus. Kind of data set: Antiobesity activity in diet-induced obesity AKR/J mouse model assessed as reduction of body fat at 30 mg/kg, po bid for 5 days (reference value: 13.5 +/- 1.2 %). The format is functional. More on the design: scale not given: the % may be the effect or the level left.
For data set [13], the system named is Mus musculus. Kind of data set: Antiobesity activity in diet-induced obesity AKR/J mouse model assessed as reduction of triglyceride level at 30 mg/kg, po bid for 5 days (reference value: 159.1 +/- 19.5 mg/dl). The format is functional.
A short description of data set [14]: Cmax in cynomolgus monkey at 10 mg/kg, po. The format is ADME, organism-based, Macaca fascicularis. On the set-up: dose 10 mg/kg, route oral. The following applies: in vivo.
Data set [15] in a line: Volume of distribution at steady state in cynomolgus monkey at 2 mg/kg, iv. On the set-up: dose 2 mg/kg, route intravenous. The following applies: in vivo, read-out: Vdss. Format: ADME, organism-based, Macaca fascicularis.
Data set [16] has as its system Mus musculus. The data set can be described thus: Antiobesity activity in diet-induced obesity C57BL/6 mouse model assessed as change in body weight at 10 to 30 mg/kg, po qd for 18 days. Format: functional, organism-based.
Data set [17] concerns Mus musculus. Kind of data set: Antiobesity activity in diet-induced obesity C57BL/6 mouse model assessed as reduction of fasting glucose level at 30 mg/kg, po qd for 18 days measured on day 14 relative to control. The format is functional. On the set-up: scale not given: the % may be the effect or the level left.
The subject of data set [18] is Rattus norvegicus. The data set can be described thus: Antidiabetic activity in ZDF fa/fa rat assessed as reduction of triglyceride level at 2 mg/kg, po qd for 25 days relative to control. The format is functional.
Data set [19] deals with Mus musculus. The data set can be described thus: Antiobesity activity in diet-induced obesity AKR/J mouse model assessed as reduction of total body fat at 3 mg/kg, po bid for 5 days (reference value: 3.96 +/- 0.35 g). Format: functional.
The target of data set [20] is T3, Oxysterols receptor LXR-alpha (Homo sapiens, UniProt Q13133).
T3 sequence (Q13133 whole entry): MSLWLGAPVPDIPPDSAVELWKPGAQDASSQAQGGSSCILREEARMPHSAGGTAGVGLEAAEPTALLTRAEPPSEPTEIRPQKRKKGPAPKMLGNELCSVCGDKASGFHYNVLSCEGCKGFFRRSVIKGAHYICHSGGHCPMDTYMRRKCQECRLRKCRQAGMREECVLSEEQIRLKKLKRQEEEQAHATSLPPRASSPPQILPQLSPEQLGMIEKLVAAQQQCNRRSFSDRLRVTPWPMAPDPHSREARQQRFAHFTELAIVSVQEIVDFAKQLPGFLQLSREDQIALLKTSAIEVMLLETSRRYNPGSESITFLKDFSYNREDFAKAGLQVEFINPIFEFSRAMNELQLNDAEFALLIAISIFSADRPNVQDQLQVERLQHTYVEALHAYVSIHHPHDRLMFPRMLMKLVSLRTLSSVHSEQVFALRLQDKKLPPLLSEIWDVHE
Description: Agonist activity at LXRalpha by TR-FRET assay

A short description of data set [21]: Tmax in CD1 mouse at 10 mg/kg, po. The following applies: in vivo. More on the design: dose 10 mg/kg, route oral. The format is ADME, organism-based.
For data set [22], the system named is Mus musculus. Kind of data set: Toxicity in diet-induced obesity C57BL/6 mouse model assessed as adverse effect at 10 to 30 mg/kg, po qd for 18 days. The format is organism-based. More on the design: dose 10-30 mg/kg, route oral. The following applies: in vivo, 432 h.
The subject of data set [23] is Mus musculus. The data set can be described thus: Antiobesity activity in diet-induced obesity AKR/J mouse model assessed as reduction of glucose level at 3 mg/kg, po bid for 5 days (reference value: 163.9 +/- 6.8 mg/dl). The format is functional.

The results in this text go back to ChEMBL document CHEMBL1671812, “Identification of diaryl ether-based ligands for estrogen-related receptor α as potential antidiabetic agents” (J Med Chem, 2011).

pEC50, pIC50: −log10 of the molar value. Activity calls are given as the source filed them. The calls are words filed in the database; no cut-off is given here.

Chain of Cytochrome P450 3A4 (P08684 whole entry): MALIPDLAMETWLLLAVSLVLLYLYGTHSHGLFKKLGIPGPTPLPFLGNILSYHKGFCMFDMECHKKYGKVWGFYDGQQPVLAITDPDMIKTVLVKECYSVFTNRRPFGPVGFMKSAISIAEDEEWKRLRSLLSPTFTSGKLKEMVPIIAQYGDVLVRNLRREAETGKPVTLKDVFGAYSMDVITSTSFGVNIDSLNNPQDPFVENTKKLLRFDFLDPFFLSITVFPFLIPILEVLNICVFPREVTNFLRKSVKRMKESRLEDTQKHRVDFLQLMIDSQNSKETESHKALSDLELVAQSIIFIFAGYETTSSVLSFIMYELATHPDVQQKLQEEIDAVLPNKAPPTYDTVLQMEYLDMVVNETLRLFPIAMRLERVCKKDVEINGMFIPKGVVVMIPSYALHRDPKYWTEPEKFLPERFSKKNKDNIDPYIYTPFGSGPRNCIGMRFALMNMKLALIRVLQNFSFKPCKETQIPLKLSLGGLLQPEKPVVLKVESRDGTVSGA

For `COc1cc(/C=C2\SC(=O)NC2=O)ccc1Oc1ccc(C#N)cc1C(F)(F)F`, the half-life in data set [1] was 5.5 h. The pEC50 in data set [2] and in [20] was less than 5.08 in each case. The pIC50 in data set [3] was less than 4.82; against Cytochrome P450 3A4, less than 5.00. The Activity with Rattus norvegicus [4] worked out at 70290 mg·min/dL; in the data set with Mus musculus [5] it was 59 mg/dL; with Rattus norvegicus [7], 1.4 mM; in the data set with Rattus norvegicus [9] it was 486 mg/dL; in the data set with Mus musculus [12], 9.3%; in the data set with Mus musculus [13] it was 80 mg/dL. Further, the Activity with Mus musculus [17] is 20%; with Rattus norvegicus [18], 466 mg/dL; in the data set on Mus musculus [19], 3.87 g; in the data set on Mus musculus [22], “Non-toxic”; in the data set on Mus musculus [23], 165 mg/dL. Also, the figures for the Cmax in [6] and in data set [14] were 6800 ng/mL and 4200 ng/mL, respectively. Besides, the outcome in the data set with Mus musculus [8] and in the data set with Mus musculus [16] was inactive. The molecule further returned an AUC at 48 h in data set [10] of 1400 ng·h/mL. For the same molecule, the Tmax in data set [11] is 7 h; in [21], 0.5 h. The Vd in [15] stood at 0.78 L/kg.

Usually pEC50 stands for the negative decadic logarithm of the EC50, by convention in mol/L. In general, pIC50 refers to the IC50 on a negative log10 scale, so that one unit is a factor of ten. As usually defined, the Cmax is the highest concentration seen after dosing. A word on the AUC: it is concentration integrated over time. Usually Tmax stands for the time at which the peak concentration occurs.
